Source: ChEMBL document CHEMBL1201862, “PubChem BioAssay data set” (2004)
The source made the active and inactive calls.

Columns and labels:
cells [1] = test: cells
[2] = biological target: T1, Oxysterols receptor LXR-beta (Homo sapiens, UniProt P55055); format: functional, cell-based;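 note: Cell-based luminescence dose-response assay of agonist activity at LXR, run as a confirmatory counterscreen to a daf-12 agonist screen; agonist potency from rising luciferase signal of a Gal4-LXR reporter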
T1 sequence (P55055 whole entry): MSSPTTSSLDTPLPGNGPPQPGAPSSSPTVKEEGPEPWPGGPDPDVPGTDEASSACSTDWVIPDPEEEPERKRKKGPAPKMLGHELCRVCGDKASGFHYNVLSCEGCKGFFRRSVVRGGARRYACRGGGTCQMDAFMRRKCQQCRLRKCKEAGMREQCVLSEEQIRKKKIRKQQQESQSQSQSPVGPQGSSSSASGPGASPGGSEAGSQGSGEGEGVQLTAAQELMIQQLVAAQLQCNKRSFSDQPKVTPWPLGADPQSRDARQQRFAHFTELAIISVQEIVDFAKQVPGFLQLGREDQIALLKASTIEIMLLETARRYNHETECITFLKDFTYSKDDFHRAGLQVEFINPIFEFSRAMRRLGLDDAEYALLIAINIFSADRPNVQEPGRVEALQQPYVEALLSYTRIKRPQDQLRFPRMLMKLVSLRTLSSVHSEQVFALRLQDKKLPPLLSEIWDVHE

[3] = Luminescence Cell-Based Dose Response HTS to Identify Activators of Luciferase Translation or Activity in H4 […] Cells. [Related pubchem assays: 1829 (Project Summary), 1814 (Primary HTS)]; format: functional
[4] = HepG2 cell cytotoxicity, dose response, cytotoxicity control, ATP luminescence, cherry-pick, activator set 2 (AID 1053143); format: functional, cell-based
[5] = biological target: T1, Oxysterols receptor LXR-beta; test: LXR agonists, Gal4 luciferase reporter, dose response, counter-screen for ssDAF-12 agonist project, cell-based, luminescence, HEK293, S. stercoralis campaign (AID 720737); format: functional; conditions: read-out: IC50 (the source's name)
[6] = growth suppression of beta-catenin-knockout colon cells, dose response, cell-based, HCT116, human colon tumor (AID 1045); format: functional;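 note: HCT116 colon tumor cells with beta catenin knocked out; cells exposed to compound for 60 hours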
[7] = Luminescence-based cell-based high throughput dose response assay to identify activators of the DAF-12 from the parasite S. stercoralis (ssDAF-12).; format: functional
[8] = growth suppression of PTEN-null colon cells, dose response, cell-based, HCT116 PTEN knockout (AID 1047); format: functional;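 note: HCT116 colon tumor cells with PTEN knocked out; cells exposed to compound for 60 hours before readout; potency for loss of cell viability measured by luminescence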
[9] = cytotoxicity in OVCAR8 ovarian cancer cells, dose response, PAX8 project, cell-based, plate reader, dry powder samples (AID 743197); format: functional; conditions: OVCAR-8
Paired box protein Pax-8 = Paired box protein Pax-8 (Homo sapiens, UniProt Q06710); test: inhibitors of PAX8-driven TPO luciferase reporter, dose response, RMG-I cells, cherry-pick (AID 687027); format: functional, cell-based;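 note: luciferase reporter driven by Pax8 target thyroperoxidase promoter measured by SteadyGlo luminescence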
Paired box protein Pax-8, sequence (Q06710 whole entry): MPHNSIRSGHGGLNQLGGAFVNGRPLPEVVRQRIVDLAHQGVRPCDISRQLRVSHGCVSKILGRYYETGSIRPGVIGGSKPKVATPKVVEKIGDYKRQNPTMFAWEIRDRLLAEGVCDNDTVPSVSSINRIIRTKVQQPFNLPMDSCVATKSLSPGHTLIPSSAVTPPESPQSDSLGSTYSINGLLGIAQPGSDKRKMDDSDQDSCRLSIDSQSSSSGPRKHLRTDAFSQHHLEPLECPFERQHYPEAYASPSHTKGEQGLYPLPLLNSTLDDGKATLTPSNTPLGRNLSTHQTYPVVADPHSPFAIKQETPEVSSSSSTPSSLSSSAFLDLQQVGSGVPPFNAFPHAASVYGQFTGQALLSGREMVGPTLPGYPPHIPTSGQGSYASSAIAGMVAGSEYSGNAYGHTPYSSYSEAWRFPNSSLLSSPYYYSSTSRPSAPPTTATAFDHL

[10] = Luminescence Cell-Based Dose Response HTS to Identify Inhibitors of 5'UTR Stem-Loop Driven Prion Protein mRNA Translation in H4 Neuroglioblastoma Cells. [Related pubchem assays: 1827 (Project Summary), 1813 (Primary HTS)]; format: functional
Albumin = Albumin (Bos taurus, UniProt P02769); test: Counterscreen for inhibitors of T-cell receptor (TCR)-CD3 interaction: Fluorescence-based biochemical high throughput dose response assay to identify inhibitors of T-cell receptor (TCR)-CD3 interaction using a TAMRA-labeled BSA probe.; format: functional
Albumin, sequence (P02769 whole entry): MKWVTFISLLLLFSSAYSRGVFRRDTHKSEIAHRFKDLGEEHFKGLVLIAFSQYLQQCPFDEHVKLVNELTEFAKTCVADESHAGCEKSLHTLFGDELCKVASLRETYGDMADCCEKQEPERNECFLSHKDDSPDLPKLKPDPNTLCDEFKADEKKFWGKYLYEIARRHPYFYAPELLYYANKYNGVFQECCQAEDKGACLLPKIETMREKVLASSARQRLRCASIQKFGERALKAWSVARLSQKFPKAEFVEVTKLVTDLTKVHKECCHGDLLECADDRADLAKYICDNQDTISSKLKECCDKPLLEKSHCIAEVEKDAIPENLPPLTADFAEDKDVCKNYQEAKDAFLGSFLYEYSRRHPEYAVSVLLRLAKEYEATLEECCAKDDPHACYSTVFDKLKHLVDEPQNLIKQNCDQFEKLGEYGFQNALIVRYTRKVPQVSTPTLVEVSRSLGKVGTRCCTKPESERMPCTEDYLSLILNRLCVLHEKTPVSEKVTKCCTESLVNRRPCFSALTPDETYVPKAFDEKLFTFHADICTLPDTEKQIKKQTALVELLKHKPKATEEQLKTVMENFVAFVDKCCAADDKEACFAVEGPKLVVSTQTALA

[11] = NIH-3T3 fibroblast cytotoxicity, dose response, cytotoxicity control, cell-based, fluorescence, Alamar Blue, secondary assay (AID 2327); format: functional;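 note: NIH-3T3 mouse fibroblasts cultured with fluconazole at 8 µg/mL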
[12] = C. albicans growth with fluconazole, confirmation, fluorescence, retest (AID 2467); format: functional, cell-based
[13] = inhibitors of SNCA 5'UTR-driven reporter translation, confirmation, H4 neuroglioma cells, luminescence (AID 1988); format: functional, cell-based
H9c2 = test: cells; format: functional, cell-based; conditions: Rattus norvegicus, H9c2, Myocardium;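 note: confirmatory concentration-response retest of ultra-high-throughput screening hits for modulation of myocardial damage; cell death induced by hydrogen peroxide oxidative stress; compound pretreatment for 60 min then peroxide exposure for 2 h; potency is for protecting the cells against peroxide damage rather than for killing them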
[14] = inhibitors of intracellular T. cruzi replication, confirmation, NIH3T3 host cells, beta-gal luminescence (AID 2044); format: functional, cell-based;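 note: intracellular parasites grown in NIH/3T3 mouse fibroblasts as host cells; luminescent beta-galactosidase reporter signal from transgenic T. cruzi replicating inside host cells; inhibitors lower the luminescence signal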
cells [15] = format: functional, cell-based
cells [16] = format: functional, cell-based; remark: listed apart in the source
[17] = cytotoxicity toward NIH3T3 fibroblasts, dose response, counter-screen, cell-based, ATP luminescence, mouse fibroblasts (AID 2010); format: functional;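 note: cells exposed to compound for about 90 hours before reading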
[18] = inhibitors of firefly luciferase expression or activity, dose response, H4 neuroglioma cells, luminescence (AID 1990); format: functional, cell-based
[19] = MC4R antagonists, dose response, counter-screen for LGR2 antagonist project, cell-based, plate reader, cherry pick (AID 743444); format: functional;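 note: transfected HEK 293 cells stimulated with alpha-MSH peptide; potency of inhibitors of the alpha-MSH evoked signal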
[20] = HepG2 cell cytotoxicity, dose response, cytotoxicity control, plate reader, cherry-pick, antagonist series (AID 743416); format: functional, cell-based
[21] = LGR2 antagonists, dose response, cell-based, HEK293, CRE-luciferase reporter, cherry pick, set 2 (AID 743343); format: functional;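 note: transfected cells were stimulated with diluted bursicon conditioned medium after compound addition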
[22] = A549 cell cytotoxicity, dose response, cytotoxicity control, plate reader, cherry-pick, antagonist series (AID 743412); format: functional, cell-based
[23] = HEK293 cell cytotoxicity, dose response, cytotoxicity control, plate reader, cherry-picked samples (AID 743446); format: functional, cell-based

Cn1c(=O)c(/C=C/c2ccccc2)nc2ccccc21
EC50 (cells [1]): > 67.6 µM (inactive) | EC50 [2]: > 67.6 µM (inactive) | EC50 [3]: 0.174 µM (active)

Cc1sc(NC(=O)c2ccc(Cl)s2)c(C(N)=O)c1C
EC50 (cells [1]): > 67.5 µM (inactive) | EC50 [2]: > 67.5 µM (inactive)

Cc1cc(C)cc(NC(=O)Nc2ccc(N3CCCCC3)cc2)c1
AC50 [4]: 26 µM (active)

Cc1ccc2nc(-c3ccc(NC(=O)COC(=O)c4ccc(Br)o4)cc3)sc2c1
EC50 [5]: > 67.5 µM (inactive) | EC50 [6]: 79.7 µM (active) | IC50 [7]: > 67.5 µM (inactive) | EC50 [8]: 37.3 µM (active)

Cc1cccc(-c2ccc([C@H]3[C@@H](CO)N4CCCCN(S(=O)(=O)c5cccc(C)c5)C[C@@H]34)cc2)c1
AC50 [9]: > 70 µM (inactive) | AC50 (Paired box protein Pax-8): 8.23 µM (active)

COc1cc2ccccc2cc1C(=O)NNC(=O)c1ccccc1O
EC50 [10]: 14.9 µM (active) | IC50 (Albumin): > 94.2 µM (inactive) | EC50 [11]: > 150 µM (inactive) | EC50 [12]: > 38 µM (not active) | EC50 [13]: 16.1 µM (active) | IC50 (H9c2): > 79 µM (inactive) | EC50 [14]: > 60 µM (not active) | EC50 (cells [15]): > 350 µM (not active) | EC50 (cells [16]): > 350 µM (not active) | EC50 [17]: > 60 µM (not active) | EC50 [18]: > 60 µM (not active)

Cc1cccc(-c2noc(-c3ccc4c(c3)OCO4)n2)c1
AC50 [19]: 12.1 µM (active) | AC50 [20]: > 52 µM (inactive) | AC50 [21]: 9.54 µM (active) | AC50 [22]: > 52 µM (inactive) | AC50 [23]: > 52 µM (inactive)

Cc1cccc(NC(S)=NNC(=O)c2cc3c(s2)CCC(C)C3)c1C (configuration not stated)
EC50 [5]: > 67.5 µM (inactive) | EC50 [11]: > 150 µM (inactive) | EC50 [12]: > 38 µM (not active) | IC50 [7]: > 67.5 µM (inactive)
